Assay results published in ChEMBL document CHEMBL1201862, “PubChem BioAssay data set” (2004).
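Following 48 hours of exposure in 96-well plates, responses at five concentrations were used to interpolate endpoints linearly. GI50: concentration for 50% inhibition of growth.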 Activity calls are given as the source filed them. Rule as the data show it: active = GI50 up to about 1.1 µM and inactive = higher.

Legend:
Test in all cases: growth of human tumour cells (NCI), 48 h
[1] = test system: HL-60
[2] = test system: TK-10
[3] = test system: NCI-H226
[4] = test system: LOX IMVI
[5] = test system: U-251
[6] = test system: OVCAR-5
[7] = test system: ACHN
[8] = test system: SK-MEL-2
[9] = test system: HCC 2998
[10] = test system: COLO 205
[11] = test system: HT-29
[12] = test system: SK-MEL-28
[13] = test system: SF-268
[14] = test system: MOLT-4
[15] = test system: UACC-62
[16] = test system: HCT-15
[17] = test system: SK-MEL-5
[18] = test system: SF-539
[19] = test system: NCI/ADR-RES
[20] = test system: M14

Row | SMILES | GI50 [1] | GI50 [2] | GI50 [3] | GI50 [4] | GI50 [5] | GI50 [6] | GI50 [7] | GI50 [8] | GI50 [9] | GI50 [10] | GI50 [11] | GI50 [12] | GI50 [13] | GI50 [14] | GI50 [15] | GI50 [16] | GI50 [17] | GI50 [18] | GI50 [19] | GI50 [20]
1 | C=C1CC[C@@H](Br)C(C)(C)[C@]12CCC(C)(O)C(Cl)C2 (stereo partly specified) | 19.9 µM (inactive) | 29.2 µM (inactive) | 16.7 µM (inactive) | 19.1 µM (inactive) | 16.2 µM (inactive) | 19.5 µM (inactive) | 20.9 µM (inactive) | 18.5 µM (inactive) | 23.3 µM (inactive) | 16 µM (inactive) | 16.8 µM (inactive) | 20 µM (inactive) | 17.4 µM (inactive) | 18.7 µM (inactive) | 18.5 µM (inactive) | 16 µM | 20.9 µM (inactive) | – | – | –
2 | CC(=O)/N=C1\N/C(=C/c2cc([N+](=O)[O-])ccc2O)CN1C | 69.2 µM (inactive) | > 100 µM (inactive) | > 100 µM (inactive) | > 100 µM (inactive) | > 100 µM (inactive) | > 100 µM (inactive) | > 100 µM (inactive) | > 100 µM (inactive) | > 100 µM (inactive) | > 100 µM (inactive) | > 100 µM (inactive) | > 100 µM (inactive) | – | 6.31 µM (inactive) | > 100 µM (inactive) | > 100 µM | > 100 µM (inactive) | > 100 µM (inactive) | > 100 µM (inactive) | > 100 µM (inactive)
3 | N#Cc1c(Cl)cc(Cl)n2c1nc1ccccc12 | 1.31 µM (inactive) | 6.68 µM (inactive) | 13.8 µM (inactive) | 6.84 µM (inactive) | 20 µM (inactive) | 20 µM (inactive) | 2.64 µM (inactive) | 17.6 µM (inactive) | 2.51 µM (inactive) | 3.52 µM (inactive) | 7.55 µM (inactive) | 7.35 µM (inactive) | 14.1 µM (inactive) | 3.21 µM (inactive) | 12.6 µM (inactive) | 3.43 µM | 14.3 µM (inactive) | 4.47 µM (inactive) | 12.6 µM (inactive) | 8.53 µM (inactive)
4 | CC(=O)O[C@H]1CC[C@H]2[C@@H]3CCC(C(C)=O)[C@H](C(=O)O)[C@H]3CC[C@]12C (stereo partly specified) | > 100 µM (inactive) | > 100 µM (inactive) | – | – | > 100 µM (inactive) | > 100 µM (inactive) | – | > 100 µM (inactive) | > 100 µM (inactive) | > 100 µM (inactive) | > 100 µM (inactive) | > 100 µM (inactive) | > 100 µM (inactive) | > 100 µM (inactive) | > 100 µM (inactive) | > 100 µM | > 100 µM (inactive) | > 100 µM (inactive) | > 100 µM (inactive) | > 100 µM (inactive)
5 | O=c1oc2ccccc2n1P(=O)(Oc1ccc(Cl)cc1)n1c(=O)oc2ccccc21 | 41.8 µM (inactive) | > 100 µM (inactive) | > 100 µM (inactive) | > 100 µM (inactive) | > 100 µM (inactive) | > 100 µM (inactive) | > 100 µM (inactive) | 55 µM (inactive) | 46.6 µM (inactive) | > 100 µM (inactive) | > 100 µM (inactive) | > 100 µM (inactive) | > 100 µM (inactive) | 39.5 µM (inactive) | 61 µM (inactive) | – | > 100 µM (inactive) | > 100 µM (inactive) | – | –
6 | CCOc1ncn(-c2ccc(NC(=S)Nc3cccc(O)c3)cc2)n1 | > 100 µM (inactive) | > 100 µM (inactive) | – | > 100 µM (inactive) | > 100 µM (inactive) | > 100 µM (inactive) | – | – | > 100 µM (inactive) | > 100 µM (inactive) | > 100 µM (inactive) | > 100 µM (inactive) | > 100 µM (inactive) | > 100 µM (inactive) | > 100 µM (inactive) | > 100 µM | > 100 µM (inactive) | > 100 µM (inactive) | – | > 100 µM (inactive)
7 | CCCCC(CC)C(=O)Oc1ccc(C(=O)c2ccccc2)c(O)c1 (stereo unspecified) | 55.1 µM (inactive) | 58.7 µM (inactive) | – | 44.6 µM (inactive) | 46.7 µM (inactive) | 38.5 µM (inactive) | 48.1 µM (inactive) | 56.4 µM (inactive) | 52.8 µM (inactive) | 61.2 µM (inactive) | 55.7 µM (inactive) | 36.8 µM (inactive) | 34.5 µM (inactive) | 24.9 µM (inactive) | 32 µM (inactive) | 40.1 µM | 39.6 µM (inactive) | 5.46 µM (inactive) | 35.9 µM (inactive) | 38.5 µM (inactive)
8 | CCOC(=O)CCc1c(C)c2c(O)cc(O)cc2oc1=O | 42.1 µM (inactive) | – | > 87.9 µM (inactive) | > 100 µM (inactive) | 53.8 µM (inactive) | > 100 µM (inactive) | – | > 76.4 µM (inactive) | > 100 µM (inactive) | > 100 µM (inactive) | > 100 µM (inactive) | > 100 µM (inactive) | > 100 µM (inactive) | > 54.6 µM (inactive) | > 100 µM (inactive) | 99.1 µM | > 100 µM (inactive) | > 100 µM (inactive) | > 100 µM (inactive) | –
9 | CC12CCC(=O)N1c1cnccc1N2 (stereo unspecified) | > 100 µM (inactive) | > 100 µM (inactive) | – | – | > 100 µM (inactive) | > 100 µM (inactive) | > 100 µM (inactive) | > 100 µM (inactive) | > 100 µM (inactive) | > 100 µM (inactive) | > 100 µM (inactive) | > 100 µM (inactive) | > 100 µM (inactive) | > 100 µM (inactive) | > 100 µM (inactive) | > 100 µM | > 100 µM (inactive) | > 100 µM (inactive) | – | > 100 µM (inactive)
10 | O=C1C=CC=C/C1=C1\N=C(c2ccccc2OCC(=O)c2ccccc2)SS1 | > 100 µM (inactive) | > 100 µM (inactive) | > 100 µM (inactive) | > 100 µM (inactive) | 44.8 µM (inactive) | > 100 µM (inactive) | > 100 µM (inactive) | > 100 µM (inactive) | > 100 µM (inactive) | – | > 100 µM (inactive) | > 100 µM (inactive) | 58.1 µM (inactive) | 22.6 µM (inactive) | > 100 µM (inactive) | > 100 µM | – | 86.7 µM (inactive) | > 100 µM (inactive) | > 100 µM (inactive)
11 | Nc1c(S(=O)(=O)O)cc(S(=O)(=O)O)c2ccc(/N=N/c3ccc(/C=C/c4ccc(/N=N/c5ccc6c(S(=O)(=O)O)cc(S(=O)(=O)O)c(N)c6c5O)cc4S(=O)(=O)O)c(S(=O)(=O)O)c3)c(O)c12 | 36.1 µM (inactive) | – | > 100 µM (inactive) | > 100 µM (inactive) | > 100 µM (inactive) | 59.4 µM (inactive) | – | > 100 µM (inactive) | > 100 µM (inactive) | > 100 µM (inactive) | > 100 µM (inactive) | > 100 µM (inactive) | > 100 µM (inactive) | > 100 µM (inactive) | > 100 µM (inactive) | > 73.5 µM | > 100 µM (inactive) | > 100 µM (inactive) | > 100 µM (inactive) | –
12 | Clc1cc(N/N=C(\c2ccccc2)c2ccccn2)ncn1 | – | 0.0363 µM (active) | 0.246 µM (active) | 0.281 µM (active) | 0.427 µM (active) | 0.361 µM (active) | 0.0266 µM (active) | 4.78 µM (inactive) | 5.94 µM (inactive) | < 0.01 µM (active) | < 0.01 µM (active) | 1.44 µM (inactive) | 0.489 µM (active) | 0.0308 µM (active) | 0.308 µM (active) | – | 0.254 µM (active) | 0.197 µM (active) | 0.0336 µM (active) | 0.0361 µM (active)
13 | CCCCCCCCCCCCCCCc1nnc(S)[nH]1 | 49.8 µM (inactive) | > 100 µM (inactive) | – | > 100 µM (inactive) | > 100 µM (inactive) | > 100 µM (inactive) | > 100 µM (inactive) | 29.6 µM (inactive) | > 100 µM (inactive) | – | > 100 µM (inactive) | > 100 µM (inactive) | > 100 µM (inactive) | 20.8 µM (inactive) | 97.9 µM (inactive) | 48 µM | – | > 100 µM (inactive) | – | > 100 µM (inactive)
14 | O=C1OC(CN2CCOCC2)CN1/N=C/c1ccc([N+](=O)[O-])o1 (stereo unspecified) [FURALTADONE] | 48.8 µM (inactive) | > 100 µM (inactive) | 39.1 µM (inactive) | 21.7 µM (inactive) | 31.6 µM (inactive) | 61.5 µM (inactive) | 35.6 µM (inactive) | 69.3 µM (inactive) | – | 27.5 µM (inactive) | 32.4 µM (inactive) | > 100 µM (inactive) | 60.3 µM (inactive) | 51.6 µM (inactive) | 34 µM (inactive) | 17 µM | 23.6 µM (inactive) | 42.1 µM (inactive) | 35.4 µM (inactive) | 20.7 µM (inactive)
15 | O=C(NN1C(=O)CSC1c1ccc(C(F)(F)F)cc1)c1ccncc1 (stereo unspecified) | > 100 µM (inactive) | – | > 100 µM (inactive) | > 100 µM (inactive) | > 100 µM (inactive) | > 100 µM (inactive) | – | > 100 µM (inactive) | > 100 µM (inactive) | – | > 100 µM (inactive) | > 100 µM (inactive) | > 100 µM (inactive) | > 100 µM (inactive) | > 100 µM (inactive) | > 100 µM | > 100 µM (inactive) | > 100 µM (inactive) | > 100 µM (inactive) | –
16 | CC1(C)OC[C@H](C(=N)OCc2ccccc2)O1 | > 100 µM (inactive) | > 100 µM (inactive) | 19.3 µM (inactive) | – | > 100 µM (inactive) | > 100 µM (inactive) | > 100 µM (inactive) | > 100 µM (inactive) | > 100 µM (inactive) | > 100 µM (inactive) | > 100 µM (inactive) | > 100 µM (inactive) | > 100 µM (inactive) | > 100 µM (inactive) | > 100 µM (inactive) | > 100 µM | > 100 µM (inactive) | > 100 µM (inactive) | – | > 100 µM (inactive)
